In patent US20250282820A1, “PEPTIDE COMPLEX HAVING TRKB BINDING ACTIVITY” (PEPTIDREAM INC, priority 2022, published 2025):
*1 amine or outer side, *2 acyl side, *3 side chain or, on linkers, in order; H or OH if unused. Where a SMILES comes first, the peptide text is derived from it. Bridges are numbered along the chain shown (N, C = ends). Roman numbers before positions name the chains, in order. [ ]: non-standard residue; d: D form. ξ: configuration not given here. X1 = O=C(OCCOCCOCCOCCOCCOCCOCCOCCOCCOCCOCCOCCOC(=O)[*:2])[*:1]; 3Pal = N[C@@H](Cc1cccnc1)C(=O)O; X2 = O=C(CCOCCC(=O)[*:2])[*:1]; PEG2 = NCCOCCOCCC(=O)O; ξK = NCCCCC(N)C(=O)O; ξP = O=C(O)C1CCCN1; ξC = NC(CS)C(=O)O

Legend:
Type in all cases: cell-based
[1] = molecular target: T1, TrkB (CellSensor TrkB-NFAT-bla CHO-K1 Cell) (Homo sapiens, UniProt Q16620); experiment: pERK1/2 AlphaLISA assay (phosphorylation of ERK) for TrkB agonist activity; details: class = peptide concentration giving 50% or more activity; BDNF maximum signal = 100%, no stimulation = 0%; 15 minutes of stimulation
T1 construct: host or cells: CHO-K1 (CellSensor TrkB-NFAT-bla CHO-K1)
T1 sequence (Q16620 32-822): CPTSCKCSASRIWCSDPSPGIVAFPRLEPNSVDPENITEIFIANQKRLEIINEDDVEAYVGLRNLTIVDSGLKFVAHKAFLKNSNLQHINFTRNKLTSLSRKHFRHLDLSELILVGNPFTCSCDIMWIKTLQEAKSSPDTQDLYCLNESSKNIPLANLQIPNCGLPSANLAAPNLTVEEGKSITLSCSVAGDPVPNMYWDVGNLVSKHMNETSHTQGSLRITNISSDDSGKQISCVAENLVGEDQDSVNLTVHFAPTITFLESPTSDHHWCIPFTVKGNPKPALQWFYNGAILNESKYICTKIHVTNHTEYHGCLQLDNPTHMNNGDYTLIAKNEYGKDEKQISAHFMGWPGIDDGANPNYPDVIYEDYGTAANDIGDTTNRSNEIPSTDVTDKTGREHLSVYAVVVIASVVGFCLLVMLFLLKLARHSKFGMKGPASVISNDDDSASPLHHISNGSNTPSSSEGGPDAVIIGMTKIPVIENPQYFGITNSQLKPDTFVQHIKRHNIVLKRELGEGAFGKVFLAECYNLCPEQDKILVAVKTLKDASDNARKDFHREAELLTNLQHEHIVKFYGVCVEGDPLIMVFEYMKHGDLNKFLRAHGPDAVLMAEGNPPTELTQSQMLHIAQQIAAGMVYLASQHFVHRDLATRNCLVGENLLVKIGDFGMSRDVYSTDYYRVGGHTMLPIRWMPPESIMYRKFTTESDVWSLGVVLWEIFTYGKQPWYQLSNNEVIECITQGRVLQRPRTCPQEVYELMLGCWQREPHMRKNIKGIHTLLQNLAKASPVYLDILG
Method: To evaluate the TrkB activation potency of the TrkB agonist peptide of the present invention, the phosphorylation of ERK was examined. CellSensor (registered trademark) TrkB-NFAT-bla CHO-K1 Cell (Invitrogen) was cultured in DMEM, high glucose, GlutaMAX (registered trademark) Supplement, and pyruvate (Thermo), comprising 10% FBS (Thermo) and 1× Non-essential amino acids (Thermo), 25 mM HEPES (Thermo), 50 ug/mL Gentamicin, 5 ug/mL Blasticidin (Thermo), and 200 ug/mL Zeocin (Thermo). After the cells were detached using Accutase (Innovative Cell Technologies), they were seeded into a 96-well plate for adherent cultures at 12,500 cells per well and cultured overnight. The next day, for starvation, the culture solution above was replaced with a nutrient starvation medium comprising 0.1% BSA (Sigma), wherein FBS, Blasticidin, and Zeocin were removed from the culture medium, and culturing was performed for 4 hours. Thereafter, Recombinant Human BDNF Protein (R&D Systems) or a peptide was added, and after 15 minutes of stimulation, cells were lysed in the Lysis Buffer provided with the AlphaLISA SureFire Ultra p-Erk1/2 (Thr202/Tyr204) assay kit (PerkinElmer). The assay was performed according to the kit protocol. The signals were detected using a SpectraMax Paradigm Multi-Mode Microplate Reader (Molecular Devices). The obtained signals were analyzed with GraphPad Prism, and the activity (%) was calculated with the maximum value of the signals induced by BDNF as 100% and a signal with no stimulation as 0%. The peptide with 50% or more activity when 1 nM of the peptide was added was evaluated as A, and the peptide with 50% or more activity when 10 nM of the peptide was added was evaluated as B.
The BDNF was evaluated at 8 points (0.0006 nM to 10 nM) from 10 nM using 4-fold dilutions.
For dimer structures Nos. 1 to 3, the peptide was evaluated at 1 nM, 10 nM, and 100 nM, and, for other dimer structure numbers, the peptide was evaluated at 0.1 nM, 1 nM, and 10 nM. When creating the concentration dependence curve, the BDNF and the peptides were evaluated at 8 points (0.006 nM to 100 nM) from 100 nM using 4-fold dilutions.

[2] = molecular target: TrkB (Homo sapiens, UniProt Q16620); experiment: PathHunter eXpress TrkB Functional Assay (phosphorylation of TrkB); details: stimulation for 3 hours; for Emax: maximum signal induced by BDNF = 100%
Sequence of TrkB (Q16620 32-822): as above
Method: To evaluate the TrkB activation potency of the TrkB agonist peptide of the present invention, the phosphorylation of TrkB was examined. The PathHunter (registered trademark) eXpress TrkB Functional Assay kit (DiscoverX; cells, 96-well plate, medium, and detection reagents included) was used and the evaluation was performed according to the attached protocols. The frozen cells were thawed and suspended in the medium, then seeded into a 96-well plate at 10,000 cells per well and incubated for 48 hours. Thereafter, Recombinant Human BDNF Protein (R&D Systems) or a peptide was added, and after stimulation for 3 hours, a detection reagent was added. The reaction was performed while protected from the light at room temperature for 60 minutes, and luminescent signals were measured using a SpectraMax Paradigm Multi-Mode Microplate Reader (Molecular Devices). The obtained signals were analyzed with GraphPad Prism, and the activity (%) was calculated with the maximum value of the signals induced by BDNF as 100% and a signal with no stimulation as 0%.
The BDNF was evaluated at 8 points (0.006 nM to 100 nM) from 100 nM using 4-fold dilutions. The peptide was evaluated in the measurement ranges A to C shown below. • Measurement range A=6 points from 100 nM using 5-fold dilutions (0.032 nM to 100 nM) • Measurement range B=8 points from 100 nM using 4-fold dilutions (0.006104 nM to 100 nM) • Measurement range C=4 points from 10 nM using 10-fold dilutions (0.01 nM to 10 nM)

[3] = molecular target: T1, TrkB (CellSensor TrkB-NFAT-bla CHO-K1 Cell); experiment: NFAT transcriptional reporter assay for TrkB agonist activity; details: class = peptide concentration giving 50% or more activity; BDNF maximum signal = 100%, no stimulation = 0%; 5 hours culture
Method: To evaluate the TrkB activation potency of the TrkB agonist peptide of the present invention, transcriptional activity was examined using transcriptional reporters. The CellSensor (registered trademark) TrkB-NFAT-bla CHO-K1 Cell (Invitrogen) used in the AlphaLISA assay was cultured in the medium above. After the cells were detached using Accutase (Innovative Cell Technologies), the cells were suspended in an assay medium, wherein Blasticidin and Zeocin were removed, then seeded into a 96-well plate for adherent cultures at 12,500 cells per well and cultured overnight. Then, BDNF or a peptide was added thereto, and the cells were further cultured in a CO2 incubator for 5 hours. After the 96-well plate was removed from the incubator and brought to room temperature, a detection reagent (LiveBLAzer (registered trademark)-FRET B/G (CCF4-AM) Substrate Mixture) was added while protected from the light, and the 96-well plate was incubated while protected from the light in a moisture box with a lid for 2 hours. For signal detection, a EnVision 2104 Multilabel Plate Reader (PerkinElmer) was used, and the ratio of fluorescence emission value (460 nm/535 nm) was calculated. The obtained numerical values were analyzed with GraphPad Prism, and the activity (%) was calculated with the maximum value of the signals induced by BDNF as 100% and a signal with no stimulation as 0%. The peptide with 50% or more activity when 1 nM of the peptide was added was evaluated as A, the peptide with 50% or more activity when 10 nM of the peptide was added was evaluated as B, and the peptide with 50% or more activity when 100 nM of the peptide was added was evaluated as C. Those that were not evaluated were listed as not tested.
The BDNF was evaluated at 7 points (0.0024 nM to 10 nM) from 10 nM using 4-fold dilutions.
For dimer structures Nos. 1 to 3, the peptide was evaluated at 1 nM, 10 nM, and 100 nM, and, for other dimer structure numbers, the peptide was evaluated at 0.1 nM, 1 nM, and 10 nM. When creating the concentration dependence curve, the BDNF and the peptides were evaluated at […] (0.006 nM to 100 nM) […] using 4-fold dilutions.

Row | Structure (SMILES) | pERK (aLISA) Assay Results [1] | Emax [2] [%] | NFAT Assay Results [3] | EC50 [2] [nM]
1 | CC(C)[C@@H]1NC(=O)[C@H](Cc2cccnc2)NC(=O)[C@H](CCC(=O)O)NC(=O)[C@H](CO)NC(=O)[C@H](Cc2ccc(O)cc2)NC(=O)[C@H]([C@@H](C)O)NC(=O)[C@@H]2CCCN2C(=O)[C@H](Cc2c[nH]c3ccccc23)NC(=O)[C@H](Cc2cccnc2)NC(=O)[C@H](Cc2ccc(O)cc2)NC(=O)[C@@H]2CCCN2C(=O)[C@H](CCC(=O)O)NC(=O)[C@H](Cc2ccccc2)NC(=O)CSC[C@@H](C(=O)NCC(=O)N[C@@H](CCCCNC(=O)OCCOCCOCCOCCOCCOCCOCCOCCOCCOCCOCCOCCOC(=O)NCCCC[C@H](NC(=O)CNC(=O)[C@@H]2CSCC(=O)N[C@@H](Cc3ccccc3)C(=O)N[C@@H](CCC(=O)O)C(=O)N3CCC[C@H]3C(=O)N[C@@H](Cc3ccc(O)cc3)C(=O)N[C@@H](Cc3cccnc3)C(=O)N[C@@H](Cc3c[nH]c4ccccc34)C(=O)N3CCC[C@H]3C(=O)N[C@@H]([C@@H](C)O)C(=O)N[C@@H](Cc3ccc(O)cc3)C(=O)N[C@@H](CO)C(=O)N[C@@H](CCC(=O)O)C(=O)N[C@@H](Cc3cccnc3)C(=O)N[C@@H](C(C)C)C(=O)N[C@@H](CCC(=O)O)C(=O)N2)C(N)=O)C(N)=O)NC(=O)[C@H](CCC(=O)O)NC1=O [compound 57] (I: {CH2CO}-FEPY[3Pal]WPTYSE[3Pal]VECGK-NH2 / II: {CH2CO}-FEPY[3Pal]WPTYSE[3Pal]VECGK-NH2; linker I:17-II:17 via X1; thioether I:N-I:15, II:N-II:15) | A (The peptide with 50% or more activity when 1 nM of the peptide was added was evaluated as A) | 99 | A (The peptide with 50% or more activity when 1 nM of the peptide was added was evaluated as A) | 
2 | CC(C)[C@@H]1NC(=O)[C@H](Cc2cccnc2)NC(=O)[C@H](CCC(=O)O)NC(=O)[C@H](CO)NC(=O)[C@H](Cc2ccc(O)cc2)NC(=O)[C@H]([C@@H](C)O)NC(=O)[C@@H]2CCCN2C(=O)[C@H](Cc2c[nH]c3ccccc23)NC(=O)[C@H](Cc2cccnc2)NC(=O)[C@H](Cc2ccc(O)cc2)NC(=O)[C@@H]2CCCN2C(=O)[C@H](CO)NC(=O)[C@H](Cc2ccccc2)NC(=O)CSC[C@@H](C(=O)NCC(=O)NCCOCCOCCC(=O)N[C@@H](CCCCNC(=O)CCOCCC(=O)NCCCC[C@H](NC(=O)CCOCCOCCNC(=O)CNC(=O)[C@@H]2CSCC(=O)N[C@@H](Cc3ccccc3)C(=O)N[C@@H](CO)C(=O)N3CCC[C@H]3C(=O)N[C@@H](Cc3ccc(O)cc3)C(=O)N[C@@H](Cc3cccnc3)C(=O)N[C@@H](Cc3c[nH]c4ccccc34)C(=O)N3CCC[C@H]3C(=O)N[C@@H]([C@@H](C)O)C(=O)N[C@@H](Cc3ccc(O)cc3)C(=O)N[C@@H](CO)C(=O)N[C@@H](CCC(=O)O)C(=O)N[C@@H](Cc3cccnc3)C(=O)N[C@@H](C(C)C)C(=O)N[C@@H](CCC(=O)O)C(=O)N2)C(N)=O)C(N)=O)NC(=O)[C@H](CCC(=O)O)NC1=O [compound 51] (I: {CH2CO}-FSPY[3Pal]WPTYSE[3Pal]VECG[PEG2]K-NH2 / II: {CH2CO}-FSPY[3Pal]WPTYSE[3Pal]VECG[PEG2]K-NH2; linker I:18-II:18 via X2; thioether I:N-I:15, II:N-II:15) | A (The peptide with 50% or more activity when 1 nM of the peptide was added was evaluated as A) | 106 | A (The peptide with 50% or more activity when 1 nM of the peptide was added was evaluated as A) | 
3 | CC(C)[C@@H]1NC(=O)[C@H](Cc2cccnc2)NC(=O)[C@H](CCC(=O)O)NC(=O)[C@H](CO)NC(=O)[C@H](Cc2ccc(O)cc2)NC(=O)[C@H]([C@@H](C)O)NC(=O)[C@@H]2CCCN2C(=O)[C@H](Cc2c[nH]c3ccccc23)NC(=O)[C@H](Cc2cccnc2)NC(=O)[C@H](Cc2ccc(O)cc2)NC(=O)[C@@H]2CCCN2C(=O)[C@H](CCC(=O)O)NC(=O)[C@H](Cc2ccccc2)NC(=O)CSCC(C(=O)NCC(=O)N[C@@H](CCCCNC(=O)OCCOCCOCCOCCOCCOCCOCCOCCOCCOCCOCCOCCOC(=O)NCCCCC(NC(=O)CNC(=O)[C@@H]2CSCC(=O)N[C@@H](Cc3ccccc3)C(=O)N[C@@H](CCC(=O)O)C(=O)N3CCCC3C(=O)N[C@@H](Cc3ccc(O)cc3)C(=O)N[C@@H](Cc3cccnc3)C(=O)N[C@@H](Cc3c[nH]c4ccccc34)C(=O)N3CCCC3C(=O)N[C@@H]([C@@H](C)O)C(=O)N[C@@H](Cc3ccc(O)cc3)C(=O)N[C@@H](CO)C(=O)N[C@@H](CCC(=O)O)C(=O)N[C@@H](Cc3cccnc3)C(=O)N[C@@H](C(C)C)C(=O)N[C@@H](CCC(=O)O)C(=O)N2)C(N)=O)C(N)=O)NC(=O)[C@H](CCC(=O)O)NC1=O (stereo partly shown) [Dimer Structure No. 57] (I: {CH2CO}-FEPY[3Pal]WPTYSE[3Pal]VE[ξC]GK-NH2 / II: {CH2CO}-FE[ξP]Y[3Pal]W[ξP]TYSE[3Pal]VECG[ξK]-NH2; linker I:17-II:17 via X1; thioether I:N-I:15, II:N-II:15) | B (the peptide with 50% or more activity when 10 nM of the peptide was added was evaluated as B) | 89 | B (the peptide with 50% or more activity when 10 nM of the peptide was added was evaluated as B) | 0.8 to 4
